Assay results reported in patent publication US11065232B2, “Dihydrotetrabenazine for the treatment of anxiety and psychoses” (ADEPTIO PHARMACEUTICALS LIMITED, priority 2017, dated 2021).

Tests used:
[1] = target: T1, alpha 1D (h) (antagonist radioligand) (Homo sapiens, UniProt P25100); assay: Receptor protein binding studies, alpha 1D
T1 sequence (P25100 1-572): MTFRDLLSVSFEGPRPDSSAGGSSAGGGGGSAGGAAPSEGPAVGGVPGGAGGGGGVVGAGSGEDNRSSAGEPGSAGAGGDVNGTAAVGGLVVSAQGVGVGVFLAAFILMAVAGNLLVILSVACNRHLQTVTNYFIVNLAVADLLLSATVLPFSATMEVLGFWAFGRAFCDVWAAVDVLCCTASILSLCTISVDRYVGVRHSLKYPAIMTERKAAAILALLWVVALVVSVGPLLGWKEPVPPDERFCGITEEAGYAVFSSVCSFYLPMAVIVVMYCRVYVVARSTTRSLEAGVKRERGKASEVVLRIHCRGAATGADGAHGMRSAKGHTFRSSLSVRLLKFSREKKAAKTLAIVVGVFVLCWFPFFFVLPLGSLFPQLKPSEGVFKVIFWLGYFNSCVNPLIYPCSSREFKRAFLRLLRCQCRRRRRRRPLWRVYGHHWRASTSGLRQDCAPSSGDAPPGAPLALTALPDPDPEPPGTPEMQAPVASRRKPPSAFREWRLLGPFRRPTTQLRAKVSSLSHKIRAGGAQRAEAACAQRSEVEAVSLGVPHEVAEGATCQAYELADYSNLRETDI
Text: (§1) The four 3,11b trans-dihydrotetrabenazine isomers (+)-α, (−)-α, (+)-β and (−)-β were subjected to specific binding assays to test their ability to bind to the receptors and transporter proteins described below. The results are set out in Table 1

[2] = target: T2, alpha 2A (h) (antagonist radioligand) (Homo sapiens, UniProt P08913); assay: Receptor protein binding studies, alpha 2A
T2 sequence (P08913 1-465): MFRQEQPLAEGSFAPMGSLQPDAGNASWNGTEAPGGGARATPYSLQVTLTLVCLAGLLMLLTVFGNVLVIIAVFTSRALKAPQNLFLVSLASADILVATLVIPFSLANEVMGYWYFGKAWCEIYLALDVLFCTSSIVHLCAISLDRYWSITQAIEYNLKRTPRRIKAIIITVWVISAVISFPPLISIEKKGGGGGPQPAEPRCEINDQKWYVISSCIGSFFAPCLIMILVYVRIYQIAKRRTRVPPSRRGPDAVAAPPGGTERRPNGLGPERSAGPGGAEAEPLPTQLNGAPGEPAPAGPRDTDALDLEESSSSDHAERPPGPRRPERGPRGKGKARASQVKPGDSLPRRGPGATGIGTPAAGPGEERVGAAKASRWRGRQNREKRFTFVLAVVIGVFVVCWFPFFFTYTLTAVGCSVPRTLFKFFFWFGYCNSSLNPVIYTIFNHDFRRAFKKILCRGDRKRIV
Text: as §1

[3] = target: D2S (h) (antagonist radioligand) (Homo sapiens, UniProt P14416); assay: Receptor protein binding studies, D2S
Chain of D2S (h) (antagonist radioligand) (P14416 1-414 isoform P14416-2): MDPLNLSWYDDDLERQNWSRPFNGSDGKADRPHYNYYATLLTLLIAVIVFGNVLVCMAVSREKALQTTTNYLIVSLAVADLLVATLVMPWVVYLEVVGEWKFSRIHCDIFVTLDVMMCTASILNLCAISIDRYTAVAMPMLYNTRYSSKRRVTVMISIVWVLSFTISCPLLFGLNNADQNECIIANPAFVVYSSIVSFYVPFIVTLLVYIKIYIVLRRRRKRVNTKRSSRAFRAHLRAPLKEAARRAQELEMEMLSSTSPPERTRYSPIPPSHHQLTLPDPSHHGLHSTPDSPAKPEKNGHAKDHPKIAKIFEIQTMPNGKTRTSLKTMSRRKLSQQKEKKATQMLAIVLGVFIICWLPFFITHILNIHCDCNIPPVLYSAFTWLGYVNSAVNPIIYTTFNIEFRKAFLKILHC
Text: as §1

[4] = target: D3 (h) (antagonist radioligand) (Homo sapiens, UniProt P35462); assay: Receptor protein binding studies, D3
Chain of D3 (h) (antagonist radioligand) (P35462 whole entry): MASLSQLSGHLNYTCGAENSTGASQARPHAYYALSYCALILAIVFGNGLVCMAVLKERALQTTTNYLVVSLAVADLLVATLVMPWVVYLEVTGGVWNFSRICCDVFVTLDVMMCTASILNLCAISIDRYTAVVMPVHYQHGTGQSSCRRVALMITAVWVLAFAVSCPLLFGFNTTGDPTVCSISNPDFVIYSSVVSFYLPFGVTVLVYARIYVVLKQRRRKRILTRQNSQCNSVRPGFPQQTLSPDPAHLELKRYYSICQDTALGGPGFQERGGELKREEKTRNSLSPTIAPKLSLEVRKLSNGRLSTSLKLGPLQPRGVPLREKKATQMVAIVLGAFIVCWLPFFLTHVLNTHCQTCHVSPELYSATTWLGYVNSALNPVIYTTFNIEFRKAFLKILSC
Text: as §1

[5] = target: T3, D4.4 (h) (antagonist radioligand) (Homo sapiens, UniProt P21917); assay: Receptor protein binding studies, D4.4
T3 sequence (P21917 1-419): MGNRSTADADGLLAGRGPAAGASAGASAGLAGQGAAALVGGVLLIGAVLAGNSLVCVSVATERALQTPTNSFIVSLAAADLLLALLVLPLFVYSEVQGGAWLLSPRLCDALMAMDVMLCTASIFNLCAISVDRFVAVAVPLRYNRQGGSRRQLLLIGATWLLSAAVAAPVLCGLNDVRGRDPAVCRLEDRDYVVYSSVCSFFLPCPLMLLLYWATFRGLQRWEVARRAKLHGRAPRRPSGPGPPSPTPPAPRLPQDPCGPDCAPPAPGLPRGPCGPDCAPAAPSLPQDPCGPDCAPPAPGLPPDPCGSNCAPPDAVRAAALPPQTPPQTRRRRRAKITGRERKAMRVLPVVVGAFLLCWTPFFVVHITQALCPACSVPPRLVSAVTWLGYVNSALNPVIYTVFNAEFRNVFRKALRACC
Text: as §1

[6] = system: I2 (antagonist radioligand); assay: Receptor protein binding studies, I2
Text: as §1

[7] = target: T4, 5-HT2C (h) (agonist radioligand) (Homo sapiens, UniProt P28335); assay: Receptor protein binding studies, 5-HT2C
T4 sequence (P28335 33-458): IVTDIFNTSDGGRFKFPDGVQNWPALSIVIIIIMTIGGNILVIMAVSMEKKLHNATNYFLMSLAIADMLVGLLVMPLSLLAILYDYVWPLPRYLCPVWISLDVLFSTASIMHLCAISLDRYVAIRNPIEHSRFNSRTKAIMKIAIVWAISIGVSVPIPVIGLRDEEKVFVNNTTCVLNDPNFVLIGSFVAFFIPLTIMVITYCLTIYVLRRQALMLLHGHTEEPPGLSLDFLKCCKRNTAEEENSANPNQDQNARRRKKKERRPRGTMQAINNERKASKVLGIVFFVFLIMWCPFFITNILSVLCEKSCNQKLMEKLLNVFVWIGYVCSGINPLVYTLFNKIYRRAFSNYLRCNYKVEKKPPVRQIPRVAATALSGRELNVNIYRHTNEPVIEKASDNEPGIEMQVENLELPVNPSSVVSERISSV
Text: as §1

[8] = target: Sigma 1 (h) (agonist radioligand) (Homo sapiens, UniProt Q99720); assay: Receptor protein binding studies, Sigma 1
Chain of Sigma 1 (h) (agonist radioligand) (Q99720 whole entry): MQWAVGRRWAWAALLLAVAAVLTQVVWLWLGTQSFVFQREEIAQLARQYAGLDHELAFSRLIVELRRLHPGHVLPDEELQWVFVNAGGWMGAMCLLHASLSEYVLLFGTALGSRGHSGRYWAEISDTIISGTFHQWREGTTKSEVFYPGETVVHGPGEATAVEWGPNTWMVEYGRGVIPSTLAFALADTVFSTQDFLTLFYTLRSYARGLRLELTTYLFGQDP
Text: as §1

[9] = target: Sigma 2 (h) (agonist radioligand) (Homo sapiens, UniProt Q5BJF2); assay: Receptor protein binding studies, Sigma 2
Chain of Sigma 2 (h) (agonist radioligand) (Q5BJF2 whole entry): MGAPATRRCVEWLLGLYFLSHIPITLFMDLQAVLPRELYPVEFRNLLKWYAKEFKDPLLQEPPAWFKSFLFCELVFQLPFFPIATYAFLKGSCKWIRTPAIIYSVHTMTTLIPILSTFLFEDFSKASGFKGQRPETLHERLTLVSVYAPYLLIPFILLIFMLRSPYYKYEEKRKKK
Text: as §1

[10] = target: hERG (membrane preparation) (antagonist radioligand) (Homo sapiens, UniProt Q12809); assay: Receptor protein binding studies, hERG
Chain of hERG (membrane preparation) (antagonist radioligand) (Q12809 whole entry): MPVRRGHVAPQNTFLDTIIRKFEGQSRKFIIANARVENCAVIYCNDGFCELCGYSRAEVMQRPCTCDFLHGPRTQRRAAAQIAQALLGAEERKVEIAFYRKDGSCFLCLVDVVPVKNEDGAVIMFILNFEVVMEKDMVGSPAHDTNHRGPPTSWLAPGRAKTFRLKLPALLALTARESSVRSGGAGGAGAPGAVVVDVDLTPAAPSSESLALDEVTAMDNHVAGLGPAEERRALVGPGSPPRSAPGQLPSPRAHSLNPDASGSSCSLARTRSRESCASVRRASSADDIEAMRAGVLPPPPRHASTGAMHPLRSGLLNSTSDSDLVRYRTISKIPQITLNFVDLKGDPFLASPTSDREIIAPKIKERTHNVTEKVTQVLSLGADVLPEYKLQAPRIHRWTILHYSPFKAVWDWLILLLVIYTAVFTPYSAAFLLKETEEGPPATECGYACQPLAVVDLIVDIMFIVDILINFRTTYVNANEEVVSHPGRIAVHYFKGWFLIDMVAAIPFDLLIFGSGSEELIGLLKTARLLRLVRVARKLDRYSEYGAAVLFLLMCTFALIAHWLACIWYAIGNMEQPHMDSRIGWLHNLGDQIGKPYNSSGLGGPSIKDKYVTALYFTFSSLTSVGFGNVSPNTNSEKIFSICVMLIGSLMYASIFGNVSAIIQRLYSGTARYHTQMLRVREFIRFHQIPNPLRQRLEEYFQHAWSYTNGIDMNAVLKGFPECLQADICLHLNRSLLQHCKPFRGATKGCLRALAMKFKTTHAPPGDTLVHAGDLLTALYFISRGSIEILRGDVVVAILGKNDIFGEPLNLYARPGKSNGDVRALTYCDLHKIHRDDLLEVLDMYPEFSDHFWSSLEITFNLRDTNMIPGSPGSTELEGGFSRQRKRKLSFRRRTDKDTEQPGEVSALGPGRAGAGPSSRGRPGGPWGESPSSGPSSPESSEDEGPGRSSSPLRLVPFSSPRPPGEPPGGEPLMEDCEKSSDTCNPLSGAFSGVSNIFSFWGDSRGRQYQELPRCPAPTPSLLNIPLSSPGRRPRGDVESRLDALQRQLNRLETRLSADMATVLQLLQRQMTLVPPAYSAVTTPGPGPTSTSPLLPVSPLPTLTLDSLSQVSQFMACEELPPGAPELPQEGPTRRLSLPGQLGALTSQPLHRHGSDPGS
Text: as §1

[11] = CONC 1.0E−05 (unit not given), 10 μM
[12] = CONC 1.0E−06 (unit not given), 1 μM

Substance	% Inhibition of specific binding ([1]; CONC 1.0E−05 (unit not given))	% Inhibition of specific binding ([1]; CONC 1.0E−06 (unit not given))	% Inhibition of specific binding ([2]; CONC 1.0E−05 (unit not given))	% Inhibition of specific binding ([2]; CONC 1.0E−06 (unit not given))	% Inhibition of specific binding ([3]; CONC 1.0E−05 (unit not given))	% Inhibition of specific binding ([3]; CONC 1.0E−06 (unit not given))	% Inhibition of specific binding ([4]; CONC 1.0E−05 (unit not given))	% Inhibition of specific binding ([4]; CONC 1.0E−06 (unit not given))	activity at the dopamine D4 receptor (in words) [5]	% Inhibition of specific binding [5, 11]	% Inhibition of specific binding [5, 12]	% Inhibition of specific binding ([6]; CONC 1.0E−05 (unit not given))	% Inhibition of specific binding ([6]; CONC 1.0E−06 (unit not given))	% Inhibition of specific binding ([7]; CONC 1.0E−05 (unit not given))	% Inhibition of specific binding ([7]; CONC 1.0E−06 (unit not given))	% Inhibition of specific binding ([8]; CONC 1.0E−05 (unit not given))	% Inhibition of specific binding ([8]; CONC 1.0E−06 (unit not given))	% Inhibition of specific binding ([9]; CONC 1.0E−05 (unit not given))	% Inhibition of specific binding ([9]; CONC 1.0E−06 (unit not given))	% Inhibition of specific binding ([10]; CONC 1.0E−05 (unit not given))	other results
(+)-α-dihydrotetrabenazine [(+)-Alpha]	−10%	15%	7%	5%	7%	−1%	2%	−14%	essentially inactive	−7%	−3%	20%	1%	3%	−8%	96%	64%	70%	34%	33%	% Inhibition of specific binding ([10]; CONC 1.0E−06 (unit not given)): 2%
(−)-α-dihydrotetrabenazine [(−)-Alpha]	25%	13%	65%	30%	73%	22%	79%	26%	significantly less active	65%	19%	12%	13%	16%	0%	78%	40%	85%	52%	19%	% Inhibition of specific binding ([10]; CONC 1.0E−06 (unit not given)): 5%
(+)-β-dihydrotetrabenazine [(+)-Beta]	20%	18%	11%	−1%	7%	−8%	12%	−18%	essentially inactive	2%	−3%	11%	6%	−5%	2%	99%	92%	85%	41%	8%	% Inhibition of specific binding ([10]; CONC 1.0E−06 (unit not given)): 3%
